Measurements published in patent publication EP4060021A1, “MIMETIC MICROBIOLOGICAL CULTURE MEDIUM AND USES THEREOF” (BIOFILM PHARMA, priority 2021, dated 2022).

Tested on: S. aureus
Assay: Clinical outcome of the prescribed antibiotic therapy (presence/absence of S. aureus in a second sample at end of first-line treatment)
Type: in vivo, patients diabétiques
Text: • La Figure 1 représente des courbes de croissance de bactéries en fonction du milieu de culture. Sur cette figure, les ordonnées correspondent au logarithme d'unités formant colonie par millilitre de milieu de culture (Log UFC/ml) et les abscisses, au temps en heure (H). La Figure 1A représente les courbes correspondant à la croissance de 2 souches de S. aureus, Newman (gauche) et SAC1 (droite), dans le milieu BHI (courbe avec indicateurs ronds) et un exemple de milieu selon l'invention (MP) (courbe avec indicateurs carrés). La Figure 1B représente les courbes correspondant à la croissance de 2 souches de P. aeruginosa, PAO1 (gauche) et PAC1 (droite), dans le milieu BHI (courbe avec indicateurs ronds) et un exemple de milieu selon l'invention (MP) (courbe avec indicateurs carrés). La Figure 1C représente les courbes correspondant à la croissance de 2 souches cliniques S. aureus SAC1 et P. aeruginosa PAC1, en coculture dans le milieu BHI (P. aeruginosa BHI ou S. aureus BHI) et un exemple de milieu selon l'invention (MP) (P. aeruginosa MP ou S. aureus MP). La mesure de différence significative, réalisée par le test de Student, entre les valeurs d'UFC/mL est exprimée, soit par (***) qui correspond à une p-value <0,001, soit par (**) qui correspond à une p-value <0,01. • La Figure 2 représente les résultats obtenus d'une détermination de l'adhésion et de la formation de biofilm par dénombrement à 24h. Sur cette figure, les ordonnées correspondent au logarithme d'unités formant colonie par millilitre de milieu de culture (Log UFC/ml). La Figure 2A représente un histogramme ou diagramme en bâton du nombre de bactéries dénombrées suite à des cultures séparées de souche S. aureus Newman (Newman), S. aureus SAC1 (SAC 1), P. aeruginosa PAO1 (PAO1) ou P. aeruginosa PAC1 (PAC1), pendant 24H dans un milieu BHI (BHI) (bâtons noirs) ou dans un exemple de milieu selon l'invention (MP) (bâtons gris). La Figure 2B montre sous forme d'histogramme le nombre de bactéries dénombrées suite à des co-cultures des souches de référence S. aureus Newman et P. aeruginosa PAO1 (PAO1/Newman), ainsi que du couple de souches cliniques S. aureus SAC1 et P. aeruginosa PAC1 (PAC 1/SAC1), pendant 24H dans un milieu BHI (BHI) (bâtons noirs) ou dans un exemple de milieu selon l'invention (MP) (bâtons gris). La mesure de différence significative, réalisée par le test de Student, entre les valeurs d'UFC est exprimée, soit par (***) qui correspond à une p-value <0,001, soit par (**) qui correspond à une p-value <0,01. • La Figure 3 représente les résultats obtenus d'une détermination de sensibilité à des antibiotiques de souches cliniques de S. aureus issues d'infections de plaies du pied chez le diabétique. Les données cliniques, anonymisées, nécessaires à l'interprétation des résultats, consistaient en l'antibiothérapie donnée au patient, ainsi que la qualification par les médecins hospitaliers d'un succès ou échec thérapeutique. La définition de succès ou échec thérapeutique est définie comme suit. Le patient commence et suit l'antibiothérapie prescrite et un deuxième prélèvement microbiologique est effectué lors du dernier jour de traitement de la 1ère antibiothérapie (± 2 jours). Ce prélèvement est utilisé pour déterminer la présence/absence du pathogène ciblé par l'antibiothérapie, S. aureus. Si ce prélèvement a montré la persistance d'un S. aureus, l'antibiothérapie est en échec. A l'inverse, en cas d'absence de S. aureus, l'antibiothérapie est associée à un succès thérapeutique. Les antibiogrammes ont été réalisés classiquement sur une durée de 18h ± 2h en accord avec les recommandations de l'EUCAST. Une gamme de l'antibiotique à tester a été réalisée. • La Figure 3A montre sous forme d'histogramme les résultats des CMI déduites d'antibiogrammes sur 11 souches testées en présence d'amoxicilline / clavulanate de potassium (commercialisé par exemple sous le nom d'Augmentin (marque déposée)). […]

## CCC[C@@H]1C[C@@H](C(=O)N[C@@H]([C@H]2O[C@H](SC)[C@H](O)[C@@H](O)[C@H]2O)[C@H](C)Cl)N(C)C1 [clindamycine]
Souche C01P009
  Succès ou échec thérapeutique: Succès
Souche C01P010
  Succès ou échec thérapeutique: Echec
Souche C03P003
  Succès ou échec thérapeutique: Succès
Souche C03P004
  Succès ou échec thérapeutique: Succès
Souche C03P005
  Succès ou échec thérapeutique: Echec
Souche C03P009
  Succès ou échec thérapeutique: Succès

## amoxicilline / clavulanate de potassium [amoxicilline/clavulanate de potassium]
Souche C01P012
  Succès ou échec thérapeutique: Succès
Souche C03P001
  Succès ou échec thérapeutique: Succès
Souche C03P008
  Succès ou échec thérapeutique: Echec
Souche C04P003
  Succès ou échec thérapeutique: Succès
Souche C04P005f
  Succès ou échec thérapeutique: Succès
Souche C04P005i
  Succès ou échec thérapeutique: Succès
Souche C04P007
  Succès ou échec thérapeutique: Echec
Souche C06P001f
  Succès ou échec thérapeutique: Echec
Souche C06P001 i
  Succès ou échec thérapeutique: Echec
Souche C06P003f
  Succès ou échec thérapeutique: Echec
Souche C06P003i
  Succès ou échec thérapeutique: Echec

## cotrimoxazole
Souche C01P0 01
  Succès ou échec thérapeutique: Echec
Souche C01P0 11
  Succès ou échec thérapeutique: Succès
Souche C03P0 02
  Succès ou échec thérapeutique: Echec
Souche C03P0 07
  Succès ou échec thérapeutique: Echec
